Several values for one entry are separate records, joined by “and”; a condition that tells them apart may be missing. Identical values can stand only once. Like-named read-outs stand apart in the source and are kept apart here.
Assays:
HIV-1 integrase = target: T1, HIV-1 integrase (Human immunodeficiency virus type 1 group M subtype B, UniProt P12497); test: Electrochemiluminescent integrase strand transfer assay (BioVeris), high-throughput screen; format: biochemical; details: for inhibition at 10 µM: single dose 10 µM, read-out: inhibition of IN ST activity
T1 construct: 250 nM of recombinant HIV-1 integrase; made in house; host or cells: E. coli RosettaII
Method: To enable a high-throughput screening, we used the ST assay developed by BioVeris. This proprietary plate-based assay measured stand transfer using electrochemiluminescent technology. First, we validated the assay using HIV-1 IN in the presence of DMSO, or increasing concentrations of a known inhibitor, MA-DKA (also known as 118-D-24, Figure 1A). […] Next, we used MA-DKA as a control in every test plate and screened a large library of molecules. Overall, 3095 compounds were tested as part of the NCI Developmental Therapeutics Program’s small molecule plated sets from the Open Chemical Repository Collection. […] A single dose testing (10 µM) enabled the identification of 130 molecules that inhibited ST by over 50% (light dashed line, Figure 1A). […] NSC153308 is a 2-phenacylsulfanylacetic acid that resembles the diketo acid chemotype. On the other side, NSC119889 is a xanthene derivative similar to V-165 [6]. […] However, the purpose of this study was to identify a new chemotype that might act on IN via a novel mechanism, distinct from known active site inhibitors. Accordingly, we retrieved the chemical structure of the 130 hits and looked for a chemical pattern different from that of conventional strand transfer inhibitors.
This electrochemiluminescent plate-based assay was performed using a BioVeris M-SERIES Analyzer (Gaithersburg, MD, USA). DNA substrates were obtained from BioVeris and used according to the manufacturer’s recommendations. Briefly, a biotinylated donor DNA was incubated for 30 min at 37 °C in the presence of 250 nM of recombinant HIV-1 integrase. Complexes were bound to paramagnetic streptavidin-coated beads (M-280 Dynabeads). After addition of the drug, the integration reaction was initiated by addition of a ruthenium-labeled target DNA. The reaction was carried out for 60 min at 37 °C, before reading on the BioVeris M-SERIES Analyzer.

HIV-1 IN [1] = target: T2, HIV-1 IN (Human immunodeficiency virus type 1 group M subtype B, UniProt P12497); set-up: method as in PMID 12920196; details: ref [4], read-out: IC50, ST inhibition, cited from earlier work
T2 construct: 250 nM of recombinant HIV-1 integrase; made in house; host or cells: E. coli RosettaII

HIV-1 IN [2] = target: T2, HIV-1 IN; set-up: method as in PMID 12920196; details: regardless of metal cofactor; ref [4]; read-out: IC50, inhibition of 3'-P; cited from earlier work
HIV-1 IN [3] = target: T2, HIV-1 IN; test: Gel-based IN 3'-processing assay; format: biochemical; details: at least three independent experiments, read-out: In Vitro IC50 +/−SD, 3'-P
Method: (§1) IN reactions were carried out by adding drugs or an equivalent volume of 100% DMSO (dimethyl sulfoxide, used as the drug solvent) to a mixture of 20 nM duplex DNA (21T/21B) and 400 nM IN in 50 mM MOPS pH 7.2, 7.5 mM MgCl2, and 14 mM 2-mercaptoethanol. Reactions were performed at 37 °C for 2 h and quenched by addition of an equal volume of loading buffer [formamide containing 1% SDS (sodium dodecyl sulfate), 0.25% bromophenol blue, and xylene cyanol]. Reaction products were separated in 16% polyacrylamide denaturing sequencing gels. Dried gels were visualized using a Typhoon 8600 (GE Healthcare, Piscataway, NJ, USA). Densitometric analyses were performed using the ImageQuant 5.1 software from GE Healthcare. Data analyses (linear regression, IC50 determination, and standard deviation) were performed using Prism 6.05 software from GraphPad.

HIV-1 IN (WT) = target: T3, HIV-1 IN (WT) (Human immunodeficiency virus type 1 group M subtype B, UniProt P12497); test: Gel-based IN strand transfer assay, WT enzyme; format: biochemical; details: gel-based assay, coupled ST, at least three independent experiments; read-out: In Vitro IC50 +/−SD, ST
T3 construct: 250 nM of recombinant HIV-1 integrase; made in house; host or cells: E. coli RosettaII
Method: as §1

[4] = tested on: VSV pseudo-typed HIV-1 virus particles; test: organism not typed; format: cell-based; details: for EC50: read-out: Ex Vivo Antiviral Activity EC50
in vitro = details: human
[5] = target: T4, HIV-1 IN mutant G140S/Q148H (Human immunodeficiency virus type 1 group M subtype B, UniProt P12497, G1287S/Q1295H); test: Gel-based IN strand transfer assay, G140S/Q148H mutant; format: biochemical
T4 construct: RAL-resistant HIV-1 mutant integrases; made in house; host or cells: E. coli RosettaII
Method: as §1

HIV-1 IN [6] = target: T2, HIV-1 IN; test: Synergy test with the active site inhibitor MK-2048; format: biochemical; details: subinhibitory dose of stilbene disulfonic acid derivative; IC50 of MK-2048 not affected; data not shown
HIV-1 IN mutant Y143R = target: T5, HIV-1 IN mutant Y143R (Human immunodeficiency virus type 1 group M subtype B, UniProt P12497, Y1290R); test: Gel-based IN strand transfer assay, Y143R mutant; format: biochemical
T5 construct: RAL-resistant HIV-1 mutant integrases; made in house; host or cells: E. coli RosettaII
Method: as §1

HIV-1 IN mutant N155H [7] = target: T6, HIV-1 IN mutant N155H (Human immunodeficiency virus type 1 group M subtype B, UniProt P12497, N1302H); test: biochemical; format: biochemical
T6 construct: RAL-resistant HIV-1 mutant integrases; made in house; host or cells: E. coli RosettaII
Method: as §1

HIV-1 IN mutant N155H [8] = test: biochemical; format: biochemical; details: N155H vs WT, Figure 2B
Method: as §1

In the case of `O=C(O)C(=O)CC(=O)c1cccn1Cc1ccc(F)cc1` [MA-DKA], the “inhibition of IN ST activity” value (HIV-1 integrase; at 10 µM, obtained from linear regression of the dose response in Figure 1A) is given as 94.8%, the IC50 (HIV-1 integrase; electrochemiluminescent plate-based assay, dose response, read-out: IC50, ST inhibition) is given as 163 nM and the IC50 (HIV-1 IN [1]; magnesium as cofactor) is given as 330 nM. For the same compound, the IC50 (HIV-1 IN [1]; manganese as cofactor) was 70 nM and the IC50 (HIV-1 IN [2]) was 70000 nM.
`Nc1ccc(/C=C/c2ccc(N)cc2S(=O)(=O)O)c(S(=O)(=O)O)c1` [NSC163] showed an IC50 (HIV-1 IN [3]) greater than 111000 nM and an IC50 (HIV-1 IN (WT)) greater than 111000 nM.
In the case of `Nc1ccc(/N=N/c2ccc(/C=C/c3ccc(/N=N/c4ccc(N)c5ccc(S(=O)(=O)O)cc45)cc3S(=O)(=O)O)c(S(=O)(=O)O)c2)c2cc(S(=O)(=O)O)ccc12` [NSC34933], the “Selectivity Index SI” value [4] is reported as greater than 166, the EC50 [4] is reported as 600 nM and the CC50 (in vitro) is reported as greater than 100000 nM. The IC50 (HIV-1 IN [3]) was 1100 ± 300 nM, the IC50 (HIV-1 IN (WT)) was 500 ± 200 nM and the IC50 [5] was 320 nM. The “synergy with active site inhibitor MK-2048” value (HIV-1 IN [6]) was “could not see any cooperative effect”, the IC50 (HIV-1 IN mutant Y143R) was 95 nM and the IC50 (HIV-1 IN mutant N155H [7]) was 91 nM.
For `CCOc1ccc(/N=N/c2ccc(/C=C/c3ccc(/N=N/c4ccc(OCC)cc4)cc3S(=O)(=O)O)c(S(=O)(=O)O)c2)cc1` [NSC47745], the “Selectivity Index SI” value [4] was greater than 6.5, the EC50 [4] was 15300 nM and the CC50 (in vitro) was greater than 100000 nM. The IC50 (HIV-1 IN [3]) was ~3000 nM and 3200 nM and the IC50 (HIV-1 IN (WT)) was ~3000 nM and 3100 nM.
Work on `O=C(Nc1ccc(Sc2ccc(/N=N/c3c(O)c(S(=O)(=O)O)cc4cc(S(=O)(=O)O)ccc34)cc2)cc1)c1ccc(/N=N/c2c(O)ccc3c(S(=O)(=O)O)cc(S(=O)(=O)O)cc23)cc1` [NSC76027] yielded an inhibition at 10 µM (HIV-1 integrase) of 62.8%.
Work on `O=C(O)c1c(Br)c(Br)c(Br)c(Br)c1C1c2ccc(O)cc2Oc2cc(O)ccc21` [NSC119889] yielded an inhibition at 10 µM (HIV-1 integrase) of 98.5%.
Work on `O=C(O)CSCC(=O)c1ccccc1` [NSC153308] yielded an inhibition at 10 µM (HIV-1 integrase) of 99.5%.
For `O=[N+]([O-])c1ccc(/C=C/c2ccc([N+](=O)[O-])cc2S(=O)(=O)O)c(S(=O)(=O)O)c1` [NSC163175], the IC50 (HIV-1 IN [3]) was greater than 111000 nM and the IC50 (HIV-1 IN (WT)) was greater than 111000 nM.
Compound `O=S(=O)(O)c1cc(/N=N/c2cc(S(=O)(=O)O)c3cccnc3c2O)ccc1/C=C/c1ccc(/N=N/c2cc(S(=O)(=O)O)c3cccnc3c2O)cc1S(=O)(=O)O` [NSC638352] has an inhibition at 10 µM (HIV-1 integrase) of 67.2%.
With `Cc1nnc(C(=O)NC(C)(C)c2nc(C(=O)NCc3ccc(F)cc3)c(O)c(=O)n2C)o1` [RAL, raltegravir, reference compound] the “loss of potency compared to the WT enzyme” value (HIV-1 IN mutant N155H [8]) was “one to two orders of magnitude”.
